Values of other authors, collected in article PMC11054282, “Structural Investigations on 2-Amidobenzimidazole Derivatives as New Inhibitors of Protein Kinase CK1 Delta” (Pharmaceuticals, 2024).
Where two headings read alike, the source gives them in different places.

Tests used:
CK1δ = details: cited from earlier work
CK1ε = details: cited from earlier work

COc1ccc(/C=C/C(=O)Nc2cc(-c3nc(SC)[nH]c3-c3ccc(F)cc3)ccn2)c(OC)c1 [III]
IC50 (CK1ε; compound III, Figure 1): 73 nM | IC50 (CK1δ; compound III, Figure 1, read-out: CK1δ IC50): 4 nM

COc1ccc(/C=C/C(=O)Nc2cc(-c3c(-c4ccc(F)cc4)noc3C(C)C)ccn2)c(OC)c1 [II]
IC50 (CK1ε; compound II, Figure 1): 2520 nM | IC50 (CK1δ; compound II, Figure 1, read-out: CK1δ IC50): 33 nM
